This is an account of results in ChEMBL document CHEMBL1201862, “PubChem BioAssay data set” (2004).

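96-well plates; 48 h exposure; 5 concentrations. Endpoints by linear interpolation between flanking doses. Not reached: highest tested concentration assigned. GI50 marks 50% less growth.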 Active and inactive are the calls of the source. Rule as the data show it: active = GI50 up to about 1.1 µM and inactive = higher.

Common to all, as to experiment: inhibition of tumour cell growth, NCI panel, 48 h
In test [1] the test system is BT-549.
Test [2] concerns Hs-578T.
Test [3] relates to LXFL 529.
The subject of test [4] is DMS-114.
For test [5], the system named is DLD-1.
The subject of test [6] is SNB-78.
Test [7] deals with HOP-18.
Test [8] concerns XF498.
The subject of test [9] is RXF 631.

With `CC(=O)ON(C(C)=O)c1ccc(-c2nc3ccccc3s2)cc1`, the GI50 in test [1] was 37.6 µM (inactive); in [2], 21.2 µM (inactive).
On the same counts, the results for `Cc1nc(O)c(Cc2ccccc2O)c(-c2ccccc2)n1` are > 100 µM (inactive) and > 100 µM (inactive).
Turning to `CN1CCN(CCCN2c3ccccc3Sc3ccc(C(F)(F)F)cc32)CC1`, the GI50 is 10.2 µM (inactive) in test [3]; 10 µM (inactive) in [4]; 13.8 µM (inactive) in test [5]; 15.7 µM (inactive) in test [6]; 14.5 µM (inactive) in test [1]; 4.35 µM (inactive) in test [2]. In addition, the GI50 in test [7] was 9.89 µM (inactive).
For `CC1C(=O)C(C)C(c2ccccc2)N(N=O)C1c1ccccc1` (stereo unspecified), the GI50 in [3] is > 1000 µM (inactive); in test [5], > 100 µM (inactive); in test [6], > 47 µM (inactive); in test [1], > 100 µM (inactive); in [8] it was 19.4 µM (inactive); in [2] it was 46.7 µM (inactive). Also, the GI50 in [7] is > 100 µM (inactive).
Regarding `COC1(OC)c2ccccc2C2(O)c3ccccc3C(=O)C12` (stereo unspecified), the GI50 in test [3] was 20.7 µM (inactive); in test [4], 35.6 µM (inactive); in [6], 64.4 µM (inactive); in [8] it was 17.8 µM (inactive); in test [7], 52 µM (inactive).
Regarding `CC1=NN2C(c3ccc(C)cc3)=CSC2=NC(C)(C)C1`, the GI50 in [3] was > 100 µM (inactive); in test [4], 71 µM (inactive); in test [5] it was > 100 µM (inactive); in test [6], > 100 µM (inactive); in test [8], 54 µM (inactive); in test [7], > 100 µM (inactive).
For `CC(=O)NNc1nc(C)c(C(=O)NNC(=O)C(=O)Nc2ccc(Cl)c([N+](=O)[O-])c2)s1`, the GI50 is 27.2 µM (inactive) in [3], 46.9 µM (inactive) in test [4], 45.8 µM (inactive) in test [6] and 42.6 µM (inactive) in [8].
As to `Nc1ccc(C(=O)N/C(=C\c2ccc3c(c2)OCO3)c2nc3ccc4c(c3[nH]2)C(=O)c2ccccc2C4=O)cc1`, the GI50 was 30.5 µM (inactive) in test [3]; 28.2 µM (inactive) in test [4]; 9.82 µM (inactive) in test [5]; 45.9 µM (inactive) in test [6]; 37.3 µM (inactive) in test [9]; 93.8 µM (inactive) in test [8].
As for `CCOC(=O)Nc1cc(NC(/C=N/NC(C)=O)C(=O)OCC)c(OC)cc1NC(C)=O` (stereo unspecified), the GI50 in test [1] and in [2] was > 100 µM (inactive) in each case.
Take `Cc1ccc(C)c(NC(=O)C(=O)CC(=O)c2cccc3ccccc23)c1`: the GI50 in [3], in test [4], in test [5], in test [6], in [9] and in test [7] was > 100 µM (inactive) throughout.
On to `COc1ccc2nc(-c3ccccc3)cc(OCC(=O)O)c2c1`, for which the GI50 in test [1] and in test [2] was > 100 µM (inactive) each time.
`CCOC(=O)c1c[nH]c2cc3c(cc2c1=O)CCS3`: the GI50 in test [1] and in test [2] was > 100 µM (inactive) in each case.
Regarding `O=C(Nc1ccccc1)c1ccc(Cl)c([N+](=O)[O-])c1`, the GI50 in [3] was 3.78 µM (inactive); in test [4], 16.6 µM (inactive); in test [5], 23.4 µM (inactive); in test [6], 17.3 µM (inactive); in test [8], 18 µM (inactive).
For `CC(NC(=O)C(=O)N/N=C1\C[C@@H](c2ccccc2)Nc2ccccc21)c1ccccc1` (stereo partly specified), the GI50 is 77.4 µM (inactive) in [3]; 97.1 µM (inactive) in test [4]; > 100 µM (inactive) in test [5]; > 100 µM (inactive) in test [6]; 18.3 µM (inactive) in test [8]; < 0.01 µM (active) in test [7].
`CNS(=O)(=O)NNS(=O)(=O)c1ccc(F)cc1`: the GI50 in [3], in test [4], in [5], in test [9] and in [8] was > 100 µM (inactive) each time.
As for `COc1ccc2nc3ccccc3c(NCCCN(C)CCCl)c2c1`, the GI50 was 0.0995 µM (active) in test [3]; 0.311 µM (active) in [4]; 0.233 µM (active) in test [5]; 0.156 µM (active) in test [6]; 0.23 µM (active) in test [9]; 1.22 µM (inactive) in test [1]. For the same molecule, the results for the GI50 in test [8] and in test [2] were 0.212 µM (active) and 0.188 µM (active), respectively.
For the molecule `NCc1c(C(N)=O)ncn1Cc1ccccc1`, the GI50 in [3], in [4], in test [6], in test [8] and in test [7] was > 100 µM (inactive) each time.
Regarding `CC(=O)NNc1nc(C)c(C(/C=C/c2ccc(Cl)cc2)=N/NC(=O)C[N+](C)(C)C)s1`, the GI50 in test [3], in test [4], in test [5] and in [7] was > 100 µM (inactive) in each case.
`Nc1nc(N)c(-c2ccccc2)c(C(=O)Nc2nccs2)n1`: the GI50 in [3], in [4], in test [5], in test [6], in test [9] and in test [7] was > 100 µM (inactive) throughout.
With `COc1cc(C2c3cc4c(cc3C(O)C3CCC(=O)N23)OCO4)cc(OC)c1OC` (stereo unspecified), the GI50 in [1] is 14.9 µM (inactive); in [2], 34.5 µM (inactive).
For the molecule `CCOC(=O)NC(=O)c1cn(CCN2CCN(C(=O)CCCCCCCCCCNc3ncnc4[nH]cnc34)CC2)c(=O)[nH]c1=O`, the GI50 was 39.8 µM (inactive) in test [3], > 100 µM (inactive) in test [5], 32.4 µM (inactive) in test [6] and > 100 µM (inactive) in test [7].
As to `COc1cc(C2OC(N)=C(C#N)C3=C2C(C)CCC3)cc(OC)c1OC` (stereo unspecified), the GI50 in test [1] was > 100 µM (inactive); in test [2] it was 55.1 µM (inactive).
For the molecule `Cc1ccc(S(=O)(=O)N/N=C(\C(=O)Nc2cccc([N+](=O)[O-])c2)c2nc3ccc([N+](=O)[O-])cc3nc2O)cc1`, the GI50 was 18.6 µM (inactive) in test [3], 10.2 µM (inactive) in test [4], > 100 µM (inactive) in [5] and > 100 µM (inactive) in [6].
Take `CCCCCCCCCCCCC/C=C1\C[C@H](O)COC1=O`: the GI50 was 16.3 µM (inactive) in test [3]; 17 µM (inactive) in test [5]; 18.4 µM (inactive) in test [6]; 16.3 µM (inactive) in test [8]; 17.4 µM (inactive) in test [7].
For the molecule `COc1cc(C(C)c2cc3c(cc2OCCNC(=O)COc2cc4c(cc2C(C)c2cc(OC)c(OC)c(OC)c2)OCO4)OCO3)cc(OC)c1OC` (stereo unspecified), the GI50 was 44.2 µM (inactive) in test [3], 26.9 µM (inactive) in test [4], > 100 µM (inactive) in test [5] and 86.3 µM (inactive) in test [9].
For the molecule `CN/C(=N\c1ccc(OC)c2ccccc12)SC`, the GI50 in [1] and in test [2] was > 10 µM (inactive) each time.
As for `N#CC(/C(CCCC(=O)Nc1cccc([N+](=O)[O-])c1)=N\NC(=O)c1c(O)ccc2ccccc12)c1nc2ccccc2s1` (stereo unspecified), the GI50 in [3] is 30.8 µM (inactive); in test [4], 12.6 µM (inactive); in test [5] it was 45.5 µM (inactive); in test [6] it was 37.4 µM (inactive); in [8], 21.8 µM (inactive); in test [7], 23.1 µM (inactive).
Turning to `O=C1CCCCC1CN1CCCCC1` (stereo unspecified), the GI50 in test [1] and in [2] was > 100 µM (inactive) throughout.
For `CCCN(CCc1ccc(-c2ccccc2)cc1)CCc1ccc2nn[nH]c2c1`, the GI50 in [1] was 8.2 µM (inactive); in test [2], 17.4 µM (inactive).
For the molecule `COc1ccc(/C=C/C(=O)C(C)(C)CN2CCCCC2)cc1`, the GI50 in [3] is 15.5 µM (inactive); in test [4] it was 15 µM (inactive); in [5] it was 18 µM (inactive); in [6] it was 17.1 µM (inactive); in test [8], 16.5 µM (inactive); in test [7], 16.9 µM (inactive).
Regarding `CC1OC(n2ccc3ccc([N+](=O)[O-])cc32)C(O)C(O)C1O` (stereo unspecified), the GI50 in test [3], in test [4], in test [5], in test [6] and in test [8] was > 100 µM (inactive) in each case.
Take `Cc1cccc(N/C(=C(/C(Cl)=C(Cl)Cl)[N+](=O)[O-])n2nnc3ccccc32)c1`: the values for the GI50 in test [1] and in test [2] were 18.6 µM (inactive) and 4.91 µM (inactive), respectively.
On to `CC1=CCC[C@@]2(C)C(CC[C@@H]2C(C)/C=C/C(C)C)c2ccc(cc2C(=O)O)C[C@@H](O)CC1` (stereo partly specified), for which the GI50 in test [3] is 11.6 µM (inactive); in [4], 18.5 µM (inactive); in test [5], 3.67 µM (inactive); in test [6] it was 16.1 µM (inactive).
As to `O=C(O)CC/C(=N\Nc1nsc2ccccc12)c1ccc(Cl)cc1`, the GI50 in test [3] was 19.4 µM (inactive); in test [4], 25 µM (inactive); in [6], 31.6 µM (inactive); in test [1], 25.1 µM (inactive); in test [2] it was 33.3 µM (inactive); in [7], 4.19 µM (inactive).
Regarding `COC(=O)C1N=CSCC1(C)O` (stereo unspecified), the GI50 in test [4], in test [5], in test [6], in test [8] and in test [7] was > 100 µM (inactive) in each case.
Regarding `COC(=O)[C@@]1(O)CC(C)C=C1C=O` (stereo partly specified), the GI50 in test [3] is 68.7 µM (inactive); in test [4], 30.2 µM (inactive); in [5], 43 µM (inactive); in test [6], 20.2 µM (inactive); in test [8], > 100 µM (inactive); in test [7], > 100 µM (inactive).
`N#CC(C#N)=C(N)/C(C#N)=C/c1ccc(O)c(O)c1`: the GI50 in test [3] was 40.7 µM (inactive); in test [4] it was 25.1 µM (inactive); in test [5] it was 71.3 µM (inactive); in test [6], > 100 µM (inactive); in [1] it was > 100 µM (inactive); in [8] it was > 100 µM (inactive). Also, in test [2], the GI50 is 48.4 µM (inactive).
Consider `COc1ccc(-c2cc(=O)c3c(OC)c(OC)c(OC)c(OC)c3o2)cc1` [TANGERETIN], for which the GI50 was 58.9 µM (inactive) in test [1] and 34.2 µM (inactive) in [2].
